Reference: US11780901B2, “Analogues of parathyroid hormone (1-34) that function as agonists of the parathyroid hormone receptor-1 and display modified activity profiles” (Wisconsin Alumni Research Foundation, priority 2013, dated 2023)
Changes are numbered by the printed parent chain.

Key:
PTHR1-1363Y = target: T1, PTHR1-1363Y (Homo sapiens, UniProt Q03431, I363Y); experiment: Activation of PTHR1 mutant PTHR1-1363Y; type: cell-based; conditions: data not shown
T1 construct: expressed in transfected cells
T1 sequence (Q03431 27-593 I363Y): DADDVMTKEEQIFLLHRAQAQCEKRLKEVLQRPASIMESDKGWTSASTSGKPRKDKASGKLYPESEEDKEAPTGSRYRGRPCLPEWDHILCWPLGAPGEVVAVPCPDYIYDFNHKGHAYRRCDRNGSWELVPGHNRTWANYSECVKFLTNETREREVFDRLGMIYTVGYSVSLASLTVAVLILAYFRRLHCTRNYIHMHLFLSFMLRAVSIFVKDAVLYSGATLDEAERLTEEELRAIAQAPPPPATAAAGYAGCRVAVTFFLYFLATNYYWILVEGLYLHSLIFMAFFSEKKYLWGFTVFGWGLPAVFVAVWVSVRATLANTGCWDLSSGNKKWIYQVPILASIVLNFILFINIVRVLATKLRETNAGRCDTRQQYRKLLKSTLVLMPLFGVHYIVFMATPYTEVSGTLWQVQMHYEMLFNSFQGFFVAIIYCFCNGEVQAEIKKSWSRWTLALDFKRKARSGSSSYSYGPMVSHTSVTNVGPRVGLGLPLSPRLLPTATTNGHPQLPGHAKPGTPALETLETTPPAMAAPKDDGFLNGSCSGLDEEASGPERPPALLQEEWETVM
Source text: (§1) Reciprocal point mutations of PTHR1 were investigated to see if they would enhance the signaling activity of PTHR2-selective agonists.

PTHR2 [1] = target: T2, PTHR2 (Homo sapiens, UniProt P49190); experiment: PTHR2 activation, cAMP production (GloSensor) in HEK293 cells; type: cell-based; set-up: expressed in transfected cells; conditions: HEK293
T2 sequence (P49190 25-550): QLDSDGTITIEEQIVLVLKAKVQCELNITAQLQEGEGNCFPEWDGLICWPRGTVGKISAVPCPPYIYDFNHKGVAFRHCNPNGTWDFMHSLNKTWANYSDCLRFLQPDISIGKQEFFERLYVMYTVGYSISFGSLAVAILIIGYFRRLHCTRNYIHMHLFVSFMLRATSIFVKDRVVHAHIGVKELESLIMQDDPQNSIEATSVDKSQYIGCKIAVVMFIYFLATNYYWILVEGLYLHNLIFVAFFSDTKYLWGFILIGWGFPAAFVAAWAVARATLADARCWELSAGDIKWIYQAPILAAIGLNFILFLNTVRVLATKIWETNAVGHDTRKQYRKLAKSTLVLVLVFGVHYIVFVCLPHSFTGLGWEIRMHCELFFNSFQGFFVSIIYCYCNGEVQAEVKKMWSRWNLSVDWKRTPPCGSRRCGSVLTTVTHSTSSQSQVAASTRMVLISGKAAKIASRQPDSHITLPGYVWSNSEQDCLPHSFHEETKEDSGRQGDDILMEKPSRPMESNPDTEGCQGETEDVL
In short: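 HEK293 cells stably expressing PTHR2; receptor activation read as cAMP production by GloSensor luminescence. Dose-response curves fit with a four-parameter sigmoidal equation; data are mean±s.e.m. of four independent measurements.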

PTHR2 [2] = target: T2, PTHR2; experiment: Wash-out assay, duration of PTHR2 activation; type: cell-based; set-up: expressed in transfected cells; host or cells: cells stably expressing PTHR2; conditions: for Normalized ligand-off AUC: after washout
Source text: Duration of activation for PTHR1 and PTHR2. To assess the duration of PTHR1 and PTHR2 activation induced by α/β-peptides 14 and 15, the time course of cAMP production by each receptor was examined after stimulation with an agonist and subsequent washing of the cells to remove unbound peptide (wash-out assay). […] During the initial “ligand-on” phase, cells stably expressing PTHR1 or PTHR2 were stimulated with an agonist concentration corresponding to ˜EC80; the medium contained D-luciferin. […] After the addition of fresh medium containing D-luciferin, the luminescence decay is measured. The area under the “ligand-off” curve (AUC) reflects the duration of signaling, which may be related to residence time of the agonist on the receptor but could have other origins at the molecular level.

PTHR1 [3] = target: T3, PTHR1 (Homo sapiens, UniProt Q03431); experiment: PTHR1 activation, cAMP production (GloSensor) in HEK293 cells; type: cell-based; set-up: expressed in transfected cells
T3 sequence (Q03431 27-593): T1 sequence (Q03431 27-593 I363Y) with Y337I

PTHR1 [4] = target: T3, PTHR1; experiment: Functional selectivity (Gs activation/cAMP production vs βarr recruitment); type: cell-based; set-up: expressed in transfected cells; host or cells: cells stably expressing PTHR1; conditions: cAMP activation vs βarr1 and βarr2 recruitment, relative to PTH (1-34)
Procedure: More specifically, the initial studies that yielded the compounds disclosed and claimed herein were conducted to determine whether there is a correlation between βarr recruitment and receptor residence time of a PTHR1 agonist. The initial studies were thus conducted in two steps. First, the functional selectivity (Gs activation as indicated by cAMP production vs. βarr recruitment) of several PTHR1 agonists that display substantial differences in signaling duration were evaluated. Second, novel PTHR1 agonists were designed that have high functional selectivity and evaluated the signaling duration of these biased agonists.
The functional selectivity of BA058 is more significant than that of PTHrP. […] LA-PTH is a long-acting PTH analog. […] The middle panels in FIG. 2 are graphs depicting, from left-to-right: βarr1 and βarr2 recruitment, presented as normalized BRET signals (bioluminescence resonance energy transfer) as a function of the log of the peptide concentration, and cAmp activation presented as normalized RLU signals (relative light units) as a function of the log of the peptide concentration. Red=PTH. Orange=LA=LA−PTH. Blue=BA058. Green=PTHrP. (BRET assays are well known and suitable kits are available commercially. See, for example, Promega's “NanoBRET” kits, catalogs nos. N1821 and N1811; Promega Corporation, Fitchburg, Wis.). The table at the bottom of FIG. 2 presents the pEC50 and Emax values for the […] and βarr2 recruitment and cAMP activation. FIG. 3 presents the data for the bias of the activity—either toward βarr recruitment or cAMP activation.
Incorporating (R*)-β^2Leu/(D)-Leu at the 7th position or (R*)-β^2Nle at the 8th position leads to high Gs-biased agonism. […] (D)-Nle is poorly tolerated at the 8th position for both cAMP signaling and βarr recruitment. The top panels in FIG. 5 are graphs depicting, from left-to-right: βarr1 and βarr2 recruitment, presented as normalized BRET signals as a function of the log of the peptide concentration, and cAmp activation presented as normalized RLU signals as a function of the log of the peptide concentration. […]

R^0 state of PTHR1 = target: T4, R^0 state of PTHR1 (Homo sapiens, UniProt Q03431); conditions: relative to PTH (1-34); cited from earlier work
T4 construct: expressed in transfected cells; host or cells: COS-7, transient; membranes
T4 sequence (Q03431 27-593): T1 sequence (Q03431 27-593 I363Y) with Y337I

PTHR1-L2891 = target: T5, PTHR1-L2891 (Homo sapiens, UniProt Q03431, L289I); experiment: Activation of PTHR1 mutant PTHR1-L2891; type: cell-based; conditions: data not shown
T5 construct: expressed in transfected cells
T5 sequence (Q03431 27-593 L289I): T1 sequence (Q03431 27-593 I363Y) with L263I, Y337I
Source text: as §1

Row | Compound | agonist activity at PTHR1-1363Y (in words) (PTHR1-1363Y) | Emax (PTHR2 [1]) [%] | Normalized ligand-off AUC (PTHR2 [2]; PTHR2, PTH(1-34)-NH2 = 100, listed as α/β-peptide 1) | Normalized ligand-off AUC (PTHR2 [2]; PTHR2, PTH(1-34)-NH2 = 100, listed as α/β-peptide 15) | Emax (PTHR2 [2]; read-out: Normalized ligand-on Emax) [%] | Emax (PTHR1 [3]; HEK293) [%] | PTHR1 agonist potency decline (PTHR1 [3]; relative to PTH(1-34)-NH2) [fold] | signaling bias / functional selectivity (in words) (PTHR1 [4]) | R0 affinity (in words) (R^0 state of PTHR1) | agonist activity at PTHR1-L2891 (in words) (PTHR1-L2891) | Normalized ligand-on Emax (PTHR2 [2]; PTHR2, agonist at ~EC80, PTH(1-34)-NH2 = 100) | PTHR1 agonist activity (in words) (PTHR1 [3]; wild-type PTHR1)
1 | CC[C@H](C)[C@H](NC(=O)[C@H](CCC(=O)O)NC(=O)[C@H](CO)NC(=O)[C@@H](CNC(=O)[C@@H](N)CO)C(C)C)C(=O)N[C@@H](CCC(N)=O)CC(=O)N[C@@H](CC(C)C)C(=O)N[C@@H](CCSC)C(=O)N[C@@H](Cc1c[nH]cn1)C(=O)N[C@@H](CC(N)=O)C(=O)N[C@@H](CC(C)C)C(=O)NCC(=O)N[C@@H](CCCCN)C(=O)N[C@@H](Cc1c[nH]cn1)C(=O)N[C@@H](CC(C)C)C(=O)N[C@@H](CC(N)=O)C(=O)N[C@@H](CO)C(=O)N[C@@H](CCSC)C(=O)N[C@@H](CCC(=O)O)C(=O)N[C@@H](CCCNC(=N)N)C(=O)N[C@H](C(=O)N[C@@H](CCC(=O)O)C(=O)N[C@@H](Cc1c[nH]c2ccccc12)C(=O)N[C@@H](CC(C)C)C(=O)N[C@@H](CCCNC(=N)N)C(=O)N[C@@H](CCCCN)C(=O)N[C@@H](CCCCN)C(=O)N[C@@H](CC(C)C)C(=O)N[C@@H](CCC(N)=O)C(=O)N[C@@H](CC(=O)O)C(=O)N[C@H](C(=O)N[C@@H](Cc1c[nH]cn1)C(=O)N[C@@H](CC(N)=O)C(=O)N[C@@H](Cc1ccccc1)C(N)=O)C(C)C)C(C)C [Ligand 15] | even less susceptible to activation | 104 ± 2 | 197 ± 16 | more prolonged signaling | 103 ± 1 | 79 ± 6 | ~100 | – | – | – | – | –
2 | LA-PTH: long-acting PTH analog (AVAEIQLMHQRAKWIQDARRRAFLHKLIAEIHTAEI; Long-acting (LA)-PTH, a parathyroid hormone analog) | – | – | – | – | – | – | – | biased toward βarr1 and βarr2 recruitment relative to cAMP activation | high R0 affinity | – | – | –
3 | TIP39-NH2: tuberoinfundibular peptide of 39 residues, naturally PTHR2-selective agonist [reference compound] | very weak agonist | – | – | – | – | – | – | – | – | very weak agonist | 99 ± 1 | does not activate
